Like-named read-outs stand apart in the source and are kept apart here.
What was measured:
[1] = system: rats; conditions: rat, in vivo
Method: (§1) A pre-clinical trial was carried out to assess the neurotoxicity of 2-chloroprocaine by intrathecal administration in repeated doses using a saline solution as control.
(§2) A first group of six rats was repeatedly treated with 20 μl of an injectable saline solution by intrathecal administration once a day.

[2] = in particular in form of hydrochloride; cited from earlier work
[3] = cited from earlier work
[4] = system: rats; test: Tail flick latency after repeated intrathecal doses; conditions: for tail flick latency before injecting: before the daily 20 μl intrathecal injection
Method: The data are presented as ±SEM average of 6 rats;
as §1, §2

[5] = system: rats; test: Behaviour observation in the pre-clinical neurotoxicity trial with repeated intrathecal doses; conditions: for changes in behavior: 7 consecutive days
Method: as §1, §2

[6] = system: rats; conditions: rat, in vivo; remark: listed apart in the source
Method: as §1, §2

[7] = system: rat; conditions: in vivo rat models, intrathecal, equipotent concentrations, versus lidocaine; cited from earlier work
[8] = system: rats; test: Motor function score after repeated intrathecal doses; conditions: 20 μl of 0.5% solution intrathecally once a day, 7 consecutive days
Method: as §1, §2

[9] = Body weight variation after repeated intrathecal doses; conditions: rats, 20 μl of 0.5% solution intrathecally once a day, 7 consecutive days
Method: as §1, §2

[10] = system: conus medullaris (cauda equina); test: Histological nerve injury score of 10 mm caudal portion of conus medullaris (cauda equina); conditions: 0.5% solution
[11] = cited from earlier work; remark: listed apart in the source
[12] = 20 μl of 0.5% solution intrathecally, chloroprocaine not significant, bupivacaine P<0.001
[13] = rats, 20 μl of 0.5% solution intrathecally once a day

CCN(CC)CCOC(=O)c1ccc(N)cc1Cl [2-chloroprocaine, 2-(diethylaminoethyl) 4-amino-2-chlorobenzoate]
motor functions (score) [1]: remained unchanged
lasting of effect [2]: 30 to 60 min
onset [2]: 5 to 15 min
half-life ([3]; offset by plasma pseudo cholinesterase): lower than one
plasma half-life ([3]; plasma): 45 to 60 s
tail flick latency before injecting ([4]; 0.5% solution): comparable with the values of rats treated with vehicle
tail flick latency before injecting ([4]; 1% solution): comparable with the values of rats treated with vehicle
tail flick latency before injecting ([4]; 2% solution): comparable with the values of rats treated with vehicle
tail flick latency 20 minutes after injection [4, 12]: slight increase
tail flick latency 20 minutes after injection ([4]; 20 μl of 1% solution intrathecally, P<0.05): significant increase
tail flick latency 20 minutes after injection ([4]; 20 μl of 2% solution intrathecally, P<0.001): significant increase
changes in behavior [5, 13]: No appreciable changes in behavior
changes in behavior ([5]; rats, 20 μl of 1% solution intrathecally once a day): No appreciable changes in behavior
changes in behavior ([5]; rats, 20 μl of 2% solution intrathecally once a day): No appreciable changes in behavior
tolerability compared with other administered concentrations ([5]; rats, repeated intrathecal, 2-chloroprocaine 2%, bupivacaine 0.5%): less tolerated
neurotoxicity of repeated intrathecal administration ([5]; repeated intrathecal administration): does not determine detectable neurotoxicity

CCCCN1CCCCC1C(=O)Nc1c(C)cccc1C (stereo not drawn) [bupivacaine]
tolerability compared with other administered concentrations [6]: less tolerated
morphological damage and functional worsening [7]: less severe morphological damage and functional worsening than lidocaine
tail flick latency before injecting ([4]; 0.5% solution): comparable with the values of rats treated with vehicle
tail flick latency 20 minutes after injection [4, 12]: significant increase
motor functions (score) [8]: two rats on the sixth day and three rats on the seventh day showed bilateral limbic weakness which influenced perambulation (score 2)
body weight [9]: decreased
moderately inflammatory infiltrate in some fibers, number of rats ([10]; group of 6 rats, 7 days repeated intrathecal): one
histological score (nerve injury score 0 to 3) ([10]; rats, 20 μl intrathecally once a day for 7 days, ±SEM of 6 rats, vehicle 0.809±0.067): 0.979±0.110
changes in behavior [5, 13]: modest sleepiness in one rat on the fifth day and in two rats on the sixth and seventh days

CCN(CC)CC(=O)Nc1c(C)cccc1C [lidocaine]
transient neurologic syndrome (TNS) ([11]; use in spinal anesthesiological practice, Pollock 2002): associated to the onset of transient neurologic syndrome (TNS)

CCN(CC)CCOC(=O)c1ccc(N)cc1 [procaine]
percentage of cases refractory to local anesthesia ([11]; spinal anesthesia, Hodgson et al. 2000): 17%
